Results on three compounds are retold here after patent US9434724B2, “Quinuclidines for modulating alpha 7 activity” (priority 2014, dated 2016).

Holding throughout (format): in vitro ADME
Data set [1] is described as follows: Metabolic stability assay in human liver microsomes (HLM). To be noted: 1 μM. The procedure, abridged:
(§1)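 In Protocol 1, compound was 1 μM final with NADPH at 37 °C, sampled at 0–45 min. In Protocol 2, 1.5 μM compound with 0.75 mg/mL microsomes (pre-NADPH mix) in 0.1 M potassium phosphate, 1 mM EDTA, pH 7.4 was pre-incubated 10 min, then NADPH started the reaction. Both: LC-MS/MS % remaining versus time 0, half-life from single-phase exponential fit.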

Data set [2] can be described thus: Metabolic stability assay in rat liver microsomes (RLM). The settings on record: 1 μM. The gist of the method: as §1
A further data set in a line: Human plasma stability. To be noted: plasma; for % Remaining @ 2 h: 5 μM. The procedure, abridged:
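Protocol 1: 1 μM compound in pH 7.4 sodium-heparin human plasma at 37° C, sampled 0–120 min. Protocol 2: 5 μM in plasma at pH 7.4–8.0, 37° C, duplicates, sampled 0–120 min. Both: LC-MS/MS percent remaining versus t0; half-life from single-phase exponential decay.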

As for `COc1c(OCC(F)(F)F)ccc2[nH]cc(C(=O)OCC34CCN(CC3)CC4)c12` [Compound 88, quinuclidin-4-ylmethyl 4-methoxy-5-(2,2,2-trifluoroethoxy)-1H-indole-3-carboxylate], the HLM in data set [1] (human, microsomes) is reported as 3.31 mL/min/kg. In addition, the RLM in data set [2] (rat, microsomes) was found to be 25.96 mL/min/kg. The T1/2 entry in “Human plasma stability” (human) was “∞”. Also, the “% Remaining @ 2 h” value in “Human plasma stability” (human, 2 h) came out at 110.47%.
In data set [1] (Protocol No. 1, human liver microsomes), `Cc1cc(Cl)c2c(C(=O)OCC34CCN(CC3)CC4)c[nH]c2c1.Cl` [Compound 65, quinuclidin-4-ylmethyl 4-chloro-6-methyl-1H-indole-3-carboxylate hydrochloride] came in with an HLM of 2.253 mL/min/kg. Further, the RLM in data set [2] (Protocol No. 1, rat liver microsomes) was 286.666 mL/min/kg. Also, the “% Remaining @ 2 h” value in “Human plasma stability” (Protocol No. 2, 37° C.) came to 72.66%.
Regarding `O=C(OCC12CCN(CC1)CC2)c1c[nH]c2cc(O)cc(Cl)c12` [Compound 46, quinuclidin-4-ylmethyl 4-chloro-6-hydroxy-1H-indole-3-carboxylate], in data set [1] (human, microsomes), the HLM was determined as 7.385 mL/min/kg. This compound also had an RLM in data set [2] (rat, microsomes) of 32.4827 mL/min/kg. Further, in the data set “Human plasma stability” (human, 2 h), the “% Remaining @ 2 h” value was found to be 91.9%.
